From patent publication US11840532B2, “Modulators of THR-β and methods of use thereof” (ALIGOS THERAPEUTICS, INC., priority 2020, dated 2023)

What was measured:
[1] = molecular target: T1, human thyroid receptor alpha ligand-binding domain (THRα) (Homo sapiens, UniProt P10827); experiment: THR Biochemical Assay (Assay 1): TR-FRET thyroid receptor coactivator assay, alpha LBD; conditions: TR-FRET coactivator recruitment; for Emax: read-out: Activity category Assay 1 THRα (Emax); for EC50: agonist EC50, read-out: Activity category Assay 1 THRα (EC50)
T1 construct: purchased Invitrogen
T1 sequence (P10827 163-410 isoform P10827-2 limits assumed, other chains not shown): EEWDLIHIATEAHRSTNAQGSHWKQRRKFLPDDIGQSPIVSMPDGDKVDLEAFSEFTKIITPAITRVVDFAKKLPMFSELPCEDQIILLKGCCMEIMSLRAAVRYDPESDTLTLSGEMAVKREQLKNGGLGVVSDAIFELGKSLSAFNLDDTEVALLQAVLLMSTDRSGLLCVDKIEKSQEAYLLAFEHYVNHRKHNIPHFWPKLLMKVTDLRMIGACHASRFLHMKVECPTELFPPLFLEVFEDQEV
From the text: (§1) THR Biochemical Assay (sAsay 1)
(§2) The TR-FRET thyroid receptor beta coactivator assay was used with slight, optimized modifications of the manufacturer's protocol (Invitrogen). The assay uses a terbium-labeled anti-GST antibody, a glutathione-S-transferase (GST) tagged human thyroid receptor, beta or alpha, ligand-binding domain (LBD), and a fluorescein labeled SRC2-2 coactivator peptide. The antibody interacts with the LBD, where the agonist also binds, resulting in increased affinity for the SRC2-2 coactivator peptide causing energy transfer of the acceptor fluorophore and a FRET emission shift from 495 to 520 nm. The energy transfer is detected as an increase in the fluorescence emission of the fluorescein acceptor, and a decrease in the fluorescence emission of the terbium donor. The assay is performed in a 384-well black plate in a final volume of 20 μL. Serial dilution of various test agonists was performed in DMSO (1% final DMSO concentration) and added to the test plate. Thyroid receptor beta LBD is added to the plate at a final concentration of 1 nM, followed by the mixture of the fluorescein labeled SRC2-2 coactivator peptide, and the terbium-labeled anti-GST antibody at final concentrations of 200 nM and 2 nM respectively. The assay is incubated for 1 h at rt protected from light. The TR-FRET is then measured on a Victor multilabel reader (Perkin Elmer) using an excitation wavelength of 340 nm with emission filters of 495 nm and 520 nm. The assay is quantified by expressing a ratio (520:495) of the intensities, and the resulting activation curves; EC50 values were generated using a sigmoidal dose response (variable slope) equation in GraphPad™ Prism 8.0.

[2] = molecular target: T2, human thyroid receptor beta ligand-binding domain (THRβ) (Homo sapiens, UniProt P10828); experiment: THR Biochemical Assay (Assay 1): TR-FRET thyroid receptor beta coactivator assay; conditions: TR-FRET coactivator recruitment, THRβ LBD; for Emax: read-out: Activity category Assay 1 THRβ (Emax); for EC50: agonist EC50, read-out: Activity category Assay 1 THRβ (EC50)
T2 construct: purchased Invitrogen
T2 sequence (P10828 217-461 limits assumed): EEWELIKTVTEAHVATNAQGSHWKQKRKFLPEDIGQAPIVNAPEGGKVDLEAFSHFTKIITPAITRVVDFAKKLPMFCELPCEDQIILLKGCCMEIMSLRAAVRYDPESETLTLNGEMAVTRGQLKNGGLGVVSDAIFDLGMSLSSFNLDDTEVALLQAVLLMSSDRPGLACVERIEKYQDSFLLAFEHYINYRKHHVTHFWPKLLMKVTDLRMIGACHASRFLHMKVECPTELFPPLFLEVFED
From the text: as §1, §2

Huh-7 cells = experiment: Huh-7 Differential Gene Expression (Assay 2): CPT1A RT-qPCR; format: cell-based; conditions: Homo sapiens, CPT1A gene expression in Huh-7 cells, 24 hr treatment, TH-depleted DMEM; for EC50: read-out: Activity category Assay 2 EC50; for Emax: read-out: Activity category Assay 2 Emax
Description: Huh-7 Differential Gene Expression (Assay 2)
Fetal bovine serum (FBS) was incubated with washed resin (50 mg resin/mL FBS; resin weight is dry weight of resin prior to washing) for 5 hr at room temperature on a rotor. The FBS was separated from the resin via centrifugation and incubated with new, washed resin for 18h at room temperature on a rotor.
Cell Culture and Drug Treatment
Huh-7 cells were cultured in DMEM (10-013-CM, Corning) supplemented with 10% FBS and 1% Pen-Strep at 37° C. under 5% CO2. When 70-80% confluence was reached, the cells were removed by trypsinization. The medium was aspirated from the cell culture dish, the cell monolayer was washed with 1× PBS, and 0.05% trypsin, 0.53 mM EDTA (25-052-CV, Corning) solution was added to the dish. After 3 min incubation, the cells were detached completely by repeatedly pipetting solution onto the monolayer. Equal volume of DMEM supplemented with 10% rFBS and 1% Pen-Strep (TH-depleted DMEM) was added to the dish to inactivate the trypsin. The cell suspension was centrifuged at 350×g at room temperature for 3 min. The supernatant was aspirated out and the cell pellet was resuspended in TH-depleted DMEM. […] After 24 hr incubation, the media was replaced with treatment media. All compounds were serially diluted in DMSO and final concentrations were reached by dilution in TH-depleted DMEM (0.1% DMSO). The cells were incubated in treatment media for 24 hr. Treatments were performed in biological duplicates.
After 24 h in treatment media, the cells were lysed directly on the culture plates and cDNA was produced using the TaqMan™ Fast Advanced Cells-to-CT™ Kit (A35374, Invitrogen) and following the manufacturer's protocol. RT-qPCR for CPT1A (Hs00912671_m1) and two housekeeping genes, ACTB (Hs01060665_g1) and TFG (Hs02832013_g1), was performed using TaqMan™ Fast Advanced Master Mix. RT-qPCR reactions were run on the qTOWER^3 84 G (Analytik Jena) in technical duplicates.
ΔRn values were obtained from the qPCRsoft384 1.0 software and CPT1A gene expression was quantified via the 2ΔΔCt method. Dose-response curves were generated using GraphPad Prism 8 using four parameter logistic equation without top constraint to derive EC50 and Emax.

Row | Emax [1] | EC50 [1] | Emax [2] | EC50 [2] | EC50 (Huh-7 cells) | Structure (SMILES) | Emax (Huh-7 cells)
1 | < 50% | > 25000 nM | < 50% | < 50 nM |  | Cc1cc(OCc2nn[nH]n2)c(C)c(C)c1Cc1ccc2[nH]cc(C(C)C)c2n1 [Compound 10, 5-(4-((2H-tetrazol-5-yl)methoxy)-2,3,6-trimethylbenzyl)-3-isopropyl-1H-pyrrolo[3,2-b]pyridine] | 
2 | < 50% | 1000 to 25000 nM | < 50% | 50 to 250 nM | 100 to 1000 nM | Cc1nc(OCC(=O)O)c(C)c(C)c1Cc1ccc2[nH]cc(C(C)C)c2n1 [Compound 6, [[5-([3-isopropyl-1H-pyrrolo[3,2-b]pyridin-5-yl]methyl)-3,4,6-trimethylpyridin-2-yl]oxy]acetic acid] | < 50%
3 | < 50% | > 25000 nM | < 50% | < 50 nM | 100 to 1000 nM | Cc1cc(OCc2noc(=O)[nH]2)c(C)c(C)c1Cc1ccc2[nH]cc(C(C)C)c2n1 [Compound 11, 3-((4-((3-isopropyl-1H-pyrrolo[3,2-b]pyridin-5-yl)methyl)-2,3,5-trimethylphenoxy)methyl)-1,2,4-oxadiazol-5(4H)-one] | < 50%
4 | < 50% | < 50 nM | 50 to 75% | < 50 nM |  | Cc1cc(NC(=O)C(=O)O)cc(C)c1Cc1ccc2[nH]cc(C(C)C)c2n1 [Compound 4, 2-((4-((3-isopropyl-1H-pyrrolo[3,2-b]pyridin-5-yl)methyl)-3,5-dimethylphenyl)amino)-2-oxoacetic acid] | 
5 | < 50% | 50 to 250 nM | < 50% | < 50 nM | < 100 nM | Cc1cc(OCC(=O)O)cc(C)c1Cc1ccc2[nH]cc(C(C)C)c2n1 [Compound 2, 2-(4-((3-isopropyl-1H-pyrrolo[3,2-b]pyridin-5-yl)methyl)-3,5-dimethylphenoxy)acetic acid] | > 75%
6 | < 50% | > 25000 nM | < 50% | < 50 nM |  | Cc1cc(OC(C)(C)C(=O)O)c(C)c(C)c1Cc1ccc2[nH]cc(C(C)C)c2n1 [Compound 8, 2-(4-((3-isopropyl-1H-pyrrolo[3,2-b]pyridin-5-yl)methyl)-2,3,5-trimethylphenoxy)-2-methylpropanoic acid] | 
7 | < 50% | > 25000 nM | < 50% | 1000 to 25000 nM |  | Cc1cc(OC(C)C(=O)O)c(C)c(C)c1Cc1ccc2[nH]cc(C(C)C)c2n1 (stereo not drawn) [Compound 7, 2-(4-((3-isopropyl-1H-pyrrolo[3,2-b]pyridin-5-yl)methyl)-2,3,5-trimethylphenoxy)propanoic acid] | 
8 | < 50% | 250 to 1000 nM | < 50% | < 50 nM | 100 to 1000 nM | Cc1cc(OCC(=O)O)c(C)c(C)c1Cc1ccc2[nH]cc(C(C)C)c2n1 [Compound 1, 2-(4-((3-isopropyl-1H-pyrrolo[3,2-b]pyridin-5-yl)methyl)-2,3,5-trimethylphenoxy)acetic acid] | > 75%
9 | < 50% | < 50 nM | < 50% | < 50 nM |  | CCOC(=O)C(=O)Nc1cc(C)c(Cc2ccc3[nH]cc(C(C)C)c3n2)c(C)c1 [Compound 5, ethyl 2-((4-((3-isopropyl-1H-pyrrolo[3,2-b]pyridin-5-yl)methyl)-3,5-dimethylphenyl)amino)-2-oxoacetate] | 
10 | < 50% | > 25000 nM | < 50% | < 50 nM |  | Cc1cc(OC(F)C(=O)O)c(C)c(C)c1Cc1ccc2[nH]cc(C(C)C)c2n1 (stereo not drawn) [Compound 9, 2-fluoro-2-(4-((3-isopropyl-1H-pyrrolo[3,2-b]pyridin-5-yl)methyl)-2,3,5-trimethylphenoxy)acetic acid] | 
11 | < 50% | < 50 nM | < 50% | < 50 nM |  | Cc1cc(NC(=O)c2noc(=O)[nH]2)cc(C)c1Cc1ccc2[nH]cc(C(C)C)c2n1 [Compound 3, N-(4-((3-isopropyl-1H-pyrrolo[3,2-b]pyridin-5-yl)methyl)-3,5-dimethylphenyl)-5-oxo-4,5-dihydro-1,2,4-oxadiazole-3-carboxamide] | 

Row | Structure (SMILES) | Emax [1] | EC50 [1] | Emax [2] | EC50 [2] | EC50 (Huh-7 cells) | Emax (Huh-7 cells)
12 | N[C@@H](Cc1cc(I)c(Oc2ccc(O)c(I)c2)c(I)c1)C(=O)O [Reference(T3), triiodothyronine, reference compound] |  |  |  |  | < 100 nM | > 75%
